Assay results taken from the supplement of paper PMC10307832.

Assays:
Test in all cases: relative viability (nuclei count vs DMSO), 5 days (fraction); higher = more cells survive
BAM7 + Crizotinib = compound: CCOC1=CC=CC=C1N=NC2=C(NN(C2=O)C3=NC(=CS3)C4=CC=CC=C4)C [BAM7] + C[C@@H](Oc1cc(-c2cnn(C3CCNCC3)c2)cnc1N)c1c(Cl)ccc(F)c1Cl [Crizotinib] (partner 1 µM)
In short: (§1)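 Dosing by pin tool came one day after lung cancer cell lines were seeded in 1536-well plates, using either one drug or a fixed anchor-drug dose plus five library-drug doses (not always all listed) in √10 steps. After 5 days, nuclei were counted on 4× images. Relative viability is treated-well nuclei count divided by vehicle-well nuclei count, and values are medians of duplicate plates.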

BAM7 + Linsitinib = compound: CCOC1=CC=CC=C1N=NC2=C(NN(C2=O)C3=NC(=CS3)C4=CC=CC=C4)C [BAM7] + C[C@]1(O)C[C@@H](c2nc(-c3ccc4ccc(-c5ccccc5)nc4c3)c3c(N)nccn32)C1 [Linsitinib] (partner 1 µM)
In short: as §1

[1] = compound: CCn1c(-c2nonc2N)nc2c(C#CC(C)(C)O)ncc(OC[C@H]3CCCNC3)c21 + CC(=O)c1c(C)c2cnc(Nc3ccc(N4CCNCC4)cn3)nc2n(C2CCCC2)c1=O [Palbociclib] (partner 0.5 µM)
In short: as §1

[2] = compound: CCn1c(-c2nonc2N)nc2c(C#CC(C)(C)O)ncc(OC[C@H]3CCCNC3)c21 + Nc1ncn([C@H]2C[C@H](O)[C@@H](CO)O2)c(=O)n1 [Decitabine] (partner 2 µM)
In short: as §1

Row | Cell Line | relative viability (BAM7 + Crizotinib; first compound 0.5 µM) | relative viability (BAM7 + Crizotinib; first compound 5 µM) | relative viability (BAM7 + Crizotinib; first compound 15.81 µM) | relative viability (BAM7 + Crizotinib; first compound 50 µM) | relative viability (BAM7 + Linsitinib; first compound 0.5 µM) | relative viability (BAM7 + Linsitinib; first compound 5 µM) | relative viability (BAM7 + Linsitinib; first compound 15.81 µM) | relative viability (BAM7 + Linsitinib; first compound 50 µM) | relative viability ([1]; first compound 0.01 µM) | relative viability ([1]; first compound 0.03162 µM) | relative viability ([1]; first compound 0.1 µM) | relative viability ([1]; first compound 0.3162 µM) | relative viability ([1]; first compound 1 µM) | relative viability ([2]; first compound 0.01 µM) | relative viability ([2]; first compound 0.03162 µM) | relative viability ([2]; first compound 0.1 µM) | relative viability ([2]; first compound 0.3162 µM) | relative viability ([2]; first compound 1 µM)
1 | HCC-44 | 0.883 | 0.907 | 0.749 | 0.787 | 0.717 | 0.67 | 0.62 | 0.689 | 0.973 | 0.939 | 0.964 | 0.813 | 1.04 | 0.957 | 0.888 | 0.902 | 0.968 | 0.985
2 | HCC-78 | 0.339 | 0.334 | 0.324 | 0.308 | 0.544 | 0.393 | 0.376 | 0.585 | 0.519 | 0.487 | 0.454 | 0.465 | 0.43 | 0.628 | 0.627 | 0.674 | 0.709 | 0.543
3 | HCC-366 | 0.552 | 0.654 | 0.471 | 0.641 | 0.67 | 0.501 | 0.583 | 0.677 | 0.378 | 0.419 | 0.396 | 0.359 | 0.344 | 0.342 | 0.34 | 0.361 | 0.302 | 0.335
4 | HCC-827 | 0.917 | 0.873 | 0.932 | 0.839 | 0.957 | 0.912 | 0.905 | 0.881 | 0.473 | 0.507 | 0.412 | 0.431 | 0.466 | 0.348 | 0.319 | 0.331 | 0.308 | 0.308
5 | HOP-62 | 0.931 | 1.02 | 0.83 | 0.854 | 1.09 | 1.23 | 0.904 | 0.756 | 0.414 | 0.436 | 0.308 | 0.383 | 0.395 | 0.18 | 0.22 | 0.246 | 0.193 | 0.226
6 | IA-LM | 0.725 | 1.16 | 0.619 | 0.784 | 0.755 | 0.705 | 0.545 | 0.672 | – | – | – | – | – | – | – | – | – | –
7 | LC-2-ad | 0.488 | 0.518 | 0.46 | 0.463 | 0.856 | 0.898 | 0.812 | 0.783 | 0.547 | 0.455 | 0.546 | 0.502 | 0.462 | 0.776 | 0.824 | 0.875 | 0.705 | 0.7
8 | NCI-H522 | – | – | – | – | – | – | – | – | 0.9 | 1.12 | 1.22 | 0.781 | 0.916 | 0.656 | 0.675 | 0.682 | 0.679 | 0.716
9 | NCI-H596 | 0.97 | 1.03 | 0.913 | 0.978 | 1.05 | 1.15 | 1.02 | 1.14 | – | – | – | – | – | 1.05 | – | 0.961 | 0.929 | 1.03
10 | NCI-H1299 | 0.98 | 1.01 | 1.01 | 0.946 | 1.02 | 1.14 | 1.02 | 0.936 | – | – | – | – | – | – | – | – | – | –
11 | NCI-H1395 | – | – | – | – | 1.02 | 1.07 | 1.03 | 1.2 | 0.605 | 0.527 | 0.604 | 0.495 | 0.509 | 0.819 | 0.735 | 0.742 | 0.583 | 0.677
12 | NCI-H1563 | 0.974 | 0.942 | 0.889 | 0.841 | 1.22 | 1.19 | 1.13 | 1.24 | – | – | – | – | – | – | – | – | – | –
13 | NCI-H1648 | – | – | – | – | – | – | – | – | 0.266 | 0.272 | 0.235 | 0.262 | 0.317 | 0.565 | 0.482 | 0.464 | 0.491 | 0.498
14 | NCI-H1650 | 0.882 | 1.07 | 0.939 | 0.848 | – | – | – | – | 0.382 | 0.291 | 0.396 | 0.153 | 0.276 | 0.355 | 0.455 | 0.522 | 0.208 | 0.442
15 | NCI-H1703 | 0.694 | 0.652 | 0.621 | 0.633 | 0.791 | 0.856 | 0.75 | 0.791 | – | – | – | – | – | – | – | – | – | –
16 | NCI-H1793 | – | – | – | – | 0.971 | 1.15 | 0.653 | 0.789 | 0.295 | 0.326 | – | 0.295 | 0.315 | 0.478 | 0.522 | – | 0.534 | 0.503
17 | NCI-H2170 | 1.12 | 1.07 | 0.873 | 0.989 | – | – | – | – | 0.391 | 0.441 | 0.378 | 0.372 | 0.435 | 0.503 | 0.445 | 0.475 | 0.454 | 0.53
18 | NCI-H2228 | 0.657 | 0.426 | 0.349 | 0.641 | 0.674 | 0.789 | 0.554 | 0.842 | 0.686 | 0.752 | 0.821 | 0.574 | 0.467 | – | – | – | – | –
19 | NCI-H2342 | – | – | – | – | – | – | – | – | 0.521 | 0.549 | 0.551 | 0.679 | 0.512 | 0.747 | 0.692 | 0.773 | 0.667 | 0.625
20 | SW 900 | – | – | – | – | – | – | – | – | 0.558 | 0.557 | 0.483 | 0.649 | 0.444 | 0.425 | 0.442 | 0.502 | 0.484 | 0.42
